Assay results from patent US20240358672A1, “APPLICATION OF GENISTEIN AND ITS PHOSPHATE ESTER DERIVATIVE AND PHARMACEUTICAL COMPOSITION COMPRISING THE SAME” (National Taiwan University, priority 2023, published 2024).

Key:
C57BL/6J mice = format: in vivo; conditions: Δ^9-THC 1 mg/kg plus genistein 50 mg/kg or rimonabant 3 mg/kg
Method: FIG. 7A: Isometric tension recordings of isolated mice thoracic aortas were performed using a wire myograph. Vascular concentration-dependent relaxation was induced by acetylcholine (ACh) in pre-constricted mouse thoracic arteries. […] FIG. 7C: Luminex analysis of inflammatory cytokines in plasma of C57BL/6J mice treated with vehicle control, Δ^9-THC, or Δ^9-THC plus genistein. […] FIG. 7E: Effect of Δ^9-THC and genistein on NF-κB phosphorylation in mouse thoracic artery. Total cell lysates were prepared, and the expressions of phosphor-NF-κB were analyzed by ELISA (upper left). Superoxide dismutase (SOD) activity of serum from mouse (bottom left). The effect of Δ^9-THC and genistein on NF-κB phosphorylation in mouse thoracic artery tissues (n=5). Total cell lysates were prepared, and the expressions of NF-κB, phosphorylated NF-κB, and β-actin were analyzed by western blot analysis (right panel). FIG. 7F: The levels reduced glutathione (GSH), Oxidized glutathione (GSSG), Total glutathione (T-GSH) and GSH/GSSG in the serum samples of mice were detected. Plasma isolated from C57BL/6J mice (n=5) treated with vehicle control, Δ^9-THC, genistein, or their combination every day for 30 days was analyzed by the glutathione colorimetric assay kit (BioVision, K261).
Genistein also rescued the oxidative stress protective-related gene expression (FIG. 7D). In addition, NF-κB phosphorylation and SOD expression in mouse serum were also attenuated with genistein (FIG. 7E). Δ^9-THC administration decreased circulating levels of the antioxidant glutathione, which was ameliorated with genistein cotreatment (FIG. 7F).

CB1 receptor = CB1 receptor (Homo sapiens, UniProt P21554); experiment: GTPase-Glo assay (in vitro GTPase assay); format: biochemical; conditions: GTPase-Glo assay
CB1 receptor, sequence (P21554 whole entry): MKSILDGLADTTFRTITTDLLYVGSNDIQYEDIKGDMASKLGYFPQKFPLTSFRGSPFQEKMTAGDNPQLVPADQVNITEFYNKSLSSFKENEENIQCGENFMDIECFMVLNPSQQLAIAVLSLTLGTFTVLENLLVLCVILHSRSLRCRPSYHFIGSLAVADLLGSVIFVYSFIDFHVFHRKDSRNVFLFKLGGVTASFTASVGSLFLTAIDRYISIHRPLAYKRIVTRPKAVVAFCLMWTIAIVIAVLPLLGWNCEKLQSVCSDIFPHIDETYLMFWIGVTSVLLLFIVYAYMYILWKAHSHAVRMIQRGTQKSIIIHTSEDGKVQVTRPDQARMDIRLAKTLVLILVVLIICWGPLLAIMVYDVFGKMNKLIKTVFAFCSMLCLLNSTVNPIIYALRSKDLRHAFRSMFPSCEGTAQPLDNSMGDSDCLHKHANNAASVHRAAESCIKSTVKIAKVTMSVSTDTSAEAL

| GTP turnover compared with Apo (CB1 receptor) | Compound | Δ^9-THC-induced mRNA expressions of inflammation-related genes in mouse thoracic artery tissues (C57BL/6J mice) |
| --- | --- | --- |
|  | Cc1c(C(=O)NN2CCCCC2)nn(-c2ccc(Cl)cc2Cl)c1-c1ccc(Cl)cc1 [rimonabant] | ameliorated |
| decrease GTP turnover | C[C@H](NC(=O)C(C)(C)Oc1ccc(C(F)(F)F)cn1)[C@@H](Cc1ccc(Cl)cc1)c1cccc(C#N)c1 [taranabant] |  |
